From article PMC5598403 (Toxicology Reports, 2014)

Target: CK2α (protein kinase CK2 catalytic subunit α) (Homo sapiens, UniProt P68400)
Assay: radiometric [γ-32P]ATP kinase assay with synthetic peptide RRRADDSDDDDD
Type: biochemical

Sequence of CK2α (protein kinase CK2 catalytic subunit α) (P68400 whole entry): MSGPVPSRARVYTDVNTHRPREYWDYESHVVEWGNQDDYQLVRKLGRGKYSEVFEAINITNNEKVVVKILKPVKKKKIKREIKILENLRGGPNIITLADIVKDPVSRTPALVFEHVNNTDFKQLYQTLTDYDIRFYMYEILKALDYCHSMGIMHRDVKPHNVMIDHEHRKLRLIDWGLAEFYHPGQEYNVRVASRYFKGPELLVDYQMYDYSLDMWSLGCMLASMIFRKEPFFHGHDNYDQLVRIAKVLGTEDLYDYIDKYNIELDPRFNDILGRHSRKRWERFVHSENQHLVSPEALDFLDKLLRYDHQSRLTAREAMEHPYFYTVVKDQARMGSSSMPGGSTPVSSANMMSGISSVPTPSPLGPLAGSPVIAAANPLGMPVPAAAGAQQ

In the case of `Oc1c(Cl)c(Cl)c(Cl)c(Cl)c1Cl` [PCP, pentachlorophenol], the IC50 is reported as 3.73 µM.
